Measured values reported in ChEMBL document CHEMBL1157957, “9,11-Secosterols from the soft corals Sinularia lochmodes and Sinularia leptoclados” (J Nat Prod, 2006).
In brackets after ≈: the same amount, converted by molar mass.

Key:
Type in all cases: functional, cell-based
HepG2 = test: Cytotoxicity against human HepG2 cells by MTT assay
A549 = test: Cytotoxicity against human A549 cells by MTT assay
MDA-MB-231 = test: Cytotoxicity against human MDA-MB-231 cells by MTT assay
MCF7 = test: Cytotoxicity against human MCF7 cells by MTT assay

Row | Structure (SMILES) | IC50 (HepG2) | IC50 (A549) | IC50 (MDA-MB-231) | IC50 (MCF7)
1 | C=C(CC[C@@H](C)[C@H]1CC[C@@H]([C@@H]2CC[C@H]3C[C@@H](O)CC[C@]3(C)C2=O)[C@]1(C)CCO)C(C)C | 8.2 µg/mL (≈ 19 µM) | 9.8 µg/mL (≈ 22.6 µM) | 11.3 µg/mL (≈ 26.1 µM) | 9.2 µg/mL (≈ 21.3 µM)
2 | C=C(CC[C@@H](C)[C@H]1CC[C@@H]([C@@H]2CC=C3C[C@@H](O)CC[C@]3(C)C2=O)[C@]1(C)CCO)C(C)C | 9.1 µg/mL (≈ 21.1 µM) | 9.1 µg/mL (≈ 21.1 µM) | 9.9 µg/mL (≈ 23 µM) | 4.5 µg/mL (≈ 10.4 µM)
3 | CC(C)C(C)CC[C@@H](C)[C@H]1CC[C@@H]([C@@H]2CC=C3C[C@@H](O)CC[C@]3(C)C2=O)[C@]1(C)CCO (stereo not given in full) | 14.1 µg/mL (≈ 32.6 µM) | 16.8 µg/mL (≈ 38.8 µM) | 15 µg/mL (≈ 34.7 µM) | 15.7 µg/mL (≈ 36.3 µM)
4 | COc1cccc2c1C(=O)c1c(O)c3c(c(O)c1C2=O)C[C@@](O)(C(=O)CO)C[C@@H]3O[C@H]1C[C@H](N)[C@H](O)[C@H](C)O1 [DOXORUBICIN] | 0.3 µg/mL (≈ 0.552 µM) | 0.4 µg/mL (≈ 0.736 µM) | – | 0.4 µg/mL (≈ 0.736 µM)
